Results as given in ChEMBL document CHEMBL1129640, “Assessment of structural requirements for the monoamine oxidase-B-catalyzed oxidation of 1,4-disubstituted-1,2,3,6-tetrahydropyridine derivatives related to the neurotoxin 1-methyl-4-phenyl-1,2,3,6-tetrahydropyridine” (J Med Chem, 1996).

How the values were obtained:
[1] = target: T1, Amine oxidase [flavin-containing] B (Bos taurus, UniProt P56560); assay: Ratio of Kcat and KM against monoamine oxidase B (MAO-B) from beef liver was calculated; conditions: cattle
T1 sequence (P56560 whole entry): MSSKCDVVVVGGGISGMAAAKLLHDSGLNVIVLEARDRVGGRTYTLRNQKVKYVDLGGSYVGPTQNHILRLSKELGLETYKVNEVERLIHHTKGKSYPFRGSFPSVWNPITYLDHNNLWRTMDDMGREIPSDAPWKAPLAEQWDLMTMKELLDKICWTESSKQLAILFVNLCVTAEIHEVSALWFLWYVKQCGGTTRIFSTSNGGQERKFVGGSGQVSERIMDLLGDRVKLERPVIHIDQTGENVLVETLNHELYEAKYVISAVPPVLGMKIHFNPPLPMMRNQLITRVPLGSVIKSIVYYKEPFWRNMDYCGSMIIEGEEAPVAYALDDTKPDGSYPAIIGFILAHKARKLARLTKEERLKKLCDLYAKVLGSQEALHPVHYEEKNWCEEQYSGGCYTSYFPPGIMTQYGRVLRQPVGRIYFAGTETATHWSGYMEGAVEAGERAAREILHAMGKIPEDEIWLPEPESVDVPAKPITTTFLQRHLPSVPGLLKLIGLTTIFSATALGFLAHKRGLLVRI

[2] = target: T1, Amine oxidase [flavin-containing] B; assay: Catalytic constant was measured against monoamine oxidase B (MAO-B) from beef liver; conditions: cattle

SMILES	Ratio [1]	k cat [2]
Clc1ccc(C2=CCNCC2)cc1	382	–
C1=C(Oc2cccs2)CC[N+](C2CC2)=C1	1900	–
C[C@@H]1NC(=O)[C@H](NC(=O)[C@@H](N)Cc2ccc(O)cc2)C(C)(C)SSC(C)(C)[C@@H](C(O)O)NC(=O)[C@H](Cc2ccccc2)NC1=O	19	–
CN1CC=C(c2cccs2)CC1	55	–
CN1CC=C(c2ccccc2)CC1	–	3.4 s⁻¹
CCCN1CC=C(c2ccccc2)CC1	4	–
Clc1ccc(OC2=CC=[N+](C3CC3)CC2)cc1	136	–
CN1CC=C(c2ccc([N+](=O)[O-])cc2)CC1	16	–
CN1CC=C(c2ccc(N)cc2)CC1	54	–
O=C([O-])C(=O)O.O=[N+]([O-])c1ccc(OC2=CC=[N+](C3CC3)CC2)cc1	150	–
C1=C(c2ccccc2)CCNC1	319	–
CN1CC=C(C2CCCCC2)CC1	688	–

Further lines, with some results ahead:

Ratio [1]	SMILES	k cat [2]
413	Cn1cccc1C1=CC=[N+](C2CC2)CC1	–
57	CN1CC=C(OC(=O)N(C)C)CC1	–
790	C#CC1=CCN(C)CC1	–
1650	C1=C(Oc2ccccc2)CC[N+](C2CC2)=C1	–
433	CCOC(=O)C1=CCN(C)CC1	–
1538	C1=C(Cc2ccccc2)CC[N+](C2CC2)=C1	–
1130	CN1CC=C(CCc2ccccc2)CC1	–
92	CN1CC=C(C(C)(C)C)CC1	–
630	Cc1ccccc1C1=CC=[N+](C2CC2)CC1	–
347	CN1CC=C(Cn2cccc2)CC1	–
912	CN1CC=C(/C=C\c2ccccc2)CC1	–
67	CN1CC=C(OC(=O)N(C)c2ccccc2)CC1	–
974	CN1CC=C(C2CC2)CC1	–
2370	C=CC1=CCN(C)CC1	–
3580	CN1CC=C(Cc2ccccc2)CC1	–
4151	CN1CC=C(Oc2ccccc2)CC1	–
